Source: article PMC5844530, “Fosmetpantotenate (RE-024), a phosphopantothenate replacement therapy for pantothenate kinase-associated neurodegeneration: Mechanism of action and efficacy in nonclinical models” (PLoS ONE, 2018)
Several values for one entry are separate records, joined by “and”; a condition that tells them apart may be missing. Equal entries are not always repeated. Where two headings read alike, the source gives them in different places.

Legend:
[1] = Microdialysis (striatal dialysate and blood) in cynomolgus monkeys; format: in vivo, cynomolgus monkey; details: for Cmax: po, read-out: Cmax; for AUC: read-out: AUC
Method: Monkeys were sedated by intramuscular (i.m.) ketamine administration and cannulated for intravenous (i.v.) administration of propofol infusion (initiated 15–30 min after ketamine administration). Subsequently, the animals were placed in an magnetic resonance imaging (MRI)-compatible stereotaxic frame (Kopf Model 1430), and T1 and T2 weighted scans (for up to 1 h) were carried out with a 7 cm loop-coil in a 3 Tesla Siemens Magnetom TIM Trio (Germany). To derive the coordinates, Digital Imaging and Communications in Medicine (DICOM) files were transformed into Neuroimaging Informatics Technology Initiative (NIFTI) format. NIFTI-compatible images were loaded into 3D viewer software (MRIcro version 1.40 build 1), and the stereotaxic zero in the MRI image was determined using the coordinates of the earbar-tips. Coordinates for placement of the guide cannulas were calculated for every individual animal by use of MRI images and a primate brain map.
On a separate day, microdialysis guide cannulas were placed bilaterally in the head of the caudate nucleus using the same MRI compatible stereotaxic frame (Kopf Model 1430), under isoflurane anesthesia. Prior to surgery, animals were administered ketamine (i.m.), and subsequently anesthetized with isoflurane (0.8%-2% inhalation) while artificially ventilated with O2/N2O (40/60) at 60 to 80 mL tidal volume via an intratracheal tube. During surgery, subcutaneous or i.v. fluids were provided. Animals were allowed to recover from the anesthesia in a warmed environment, single housed, and given at a minimum a 14-day post-surgery recovery time. The following medications were administered to reduce pain and inflammation, as well as reduce the chance of post-operative infection: meloxicam (Metacam 5 mg/mL, 0.2 mg/kg, buprenorphine (Temgesic, 0.3 mg/mL, 0.0038 mg/kg), enrofloxacine (25 mg/mL, 5 mg/kg), and amoxicillin (150 mg/mL, 15 mg/kg).
Samples were stored in -80°C.
From monkeys only, whole blood samples (0.5 mL) were collected from the femoral vein at -1, 0, 1, 2, and 3 h relative to dosing and transferred immediately to chilled polypropylene 15 mL vials containing 2500 μL of 0.15% formic acid in acetonitrile, mixed, and placed on dry ice. After the collections samples were stored at -80°C.
Sample preparation for monkey dialysate and blood samples: Concentrations of fosmetpantotenate (D1 and D2), PA, and PPA in monkey dialysate and blood samples were determined by Brains On-Line LLC. […] For dialysate quantitation, standards and QC samples were prepared in control dialysate (0.2% BSA in aCSF: water: 0.04% ascorbic acid in aqueous 0.02 M formic acid [4.5:24:6 v/v/v]). Standards, QC samples, and dialysate (10 μL) were mixed with 6 μL 20 mM formic acid and 0.01% ascorbic acid in water containing internal standard (10 ng/mL of ^15N/^13C3-PA) and analyzed by LC-MS/MS. Blood standards and QC samples were prepared in supernatant from control monkey blood which had been treated with 5 volumes of 0.15% formic acid in acetonitrile. Endogenous levels >LLOQ were detected for PA in control quenched blood only and quantitated at 56.56 nM based on calibration standard prepared in solvent. To compensate for endogenous PA in the calibration curve control blood, PA standard curve concentrations were spiked plus endogenous levels. Sample work-up of blood involved diluting 10 μL supernatant from study blood samples, standards, and QC samples with 90 μL of 20 mM formic acid and 0.01% ascorbic acid in water, then treating with 4 μL 20 mM formic acid and 0.01% ascorbic acid in water containing internal standard (10 ng/mL of ^15N/^13C3-PA) and analyzing by LC-MS/MS.

[2] = Stability in simulated gastric fluid; format: in vitro ADME; details: simulated gi fluid; pH 1.2; 3.2 mg/mL pepsin; 10 μM; read-out: half-life (t½) in simulated gastric fluid
Method: Stability in simulated gastric fluid: A stock solution of fosmetpantotenate or its individual diastereomers was prepared in 0.1% formic acid in methanol. Simulated gastric fluid, pH 1.2, was prepared with 2 g/L sodium chloride, 3.2 g/L of pepsin, and 0.7% (v/v) HCl. Gastric buffer, pH 1.2, was prepared containing 2 g/L sodium chloride and 0.7% (v/v) HCl. An appropriate aliquot of fosmetpantotenate or individual diastereomers to yield an initial concentration of 10 μM was added to both fluids, and samples were mixed at ~25°C on an orbital shaker. Aliquots (50 μL) were taken at 0, 2, and 4 h; added to 150 μL dimethyl sulfoxide (DMSO) containing an analytical internal standard; vortexed; and analyzed immediately by LC-MS/MS.
Bioanalysis for determinations of analyte stability: Samples were analyzed using a benchtop tandem quadrupole detector (TQD) mass spectrometer (Waters Ltd, Centennial Park, Hertfordshire). […] Suitable retention and peak shape with separation of the 2 diastereomers were obtained. The chromatography column was a Phenomenex-Kinetex XB C18 (2.10 x 50 mm; 2.6 μm), with a 0.7 mL/min flow rate and a 2 μL injection volume. […] The gradient was initiated with 20% B and increased linearly, reaching 40% B at 0.6 min, followed by 50% B at 0.8 min and by 95% B at 0.9 min. Conditions were kept isocratic through 1.2 min, returned to starting conditions (20% B) at 1.25 min, and maintained at 20% B through 1.5 min before the next injection. Since fosmetpantotenate is a mixture of diastereomers which are resolved chromatographically, the fosmetpantotenate MRM area corresponds to the sum of the MRM areas of the individual diastereomers.
The percent of compound remaining was determined from the MRM area response in each sample relative to that in the T = 0 samples (normalized for internal standard). Natural log plots of the percent compound remaining over time were used to determine the t½ of compound disappearance using the relationship t½ = -0.693/λ, where λ is the slope of the natural logarithm of the percent compound remaining vs time curve.

SMILES: COC(=O)CCNC(=O)[C@H](O)C(C)(C)COP(=O)(N[C@@H](C)C(=O)OC)Oc1ccccc1 (mixture of isomers) [Fosmetpantotenate]
- fold increase in dialysate AUC from 100 to 300 mg/kg ([1]; PA basal adjusted, analyte = label): 5.0 fold
- fold increase in blood estimated exposure from 100 to 300 mg/kg ([1]; blood): ~ 3.6 fold
- concentration at 0.5 h ([1]; cynomolgus monkey, in vivo, 300 mg/kg, individual Cyno, Fosmetpantotentate 300 mg/kg PO, corrected for dilution, post-dose, time 0.5 hr, read-out: Fosmetpantotenate Dialysate Concentration): 2060 nM
- concentration at 1 h ([1]; cynomolgus monkey, in vivo, 300 mg/kg, individual Cyno, Fosmetpantotentate 300 mg/kg PO, corrected for dilution, post-dose, time 1 hr, read-out: Fosmetpantotenate Dialysate Concentration): 393 nM
- concentration at 1.5 h ([1]; cynomolgus monkey, in vivo, 300 mg/kg, individual Cyno, Fosmetpantotentate 300 mg/kg PO, corrected for dilution, post-dose, time 1.5 hr, read-out: Fosmetpantotenate Dialysate Concentration): 76 nM
- concentration at 2 h ([1]; cynomolgus monkey, in vivo, 300 mg/kg, individual Cyno, Fosmetpantotentate 300 mg/kg PO, corrected for dilution, post-dose, time 2 hr, read-out: Fosmetpantotenate Dialysate Concentration): 20 nM
- concentration at 2.5 h ([1]; cynomolgus monkey, in vivo, 300 mg/kg, individual Cyno, Fosmetpantotentate 300 mg/kg PO, corrected for dilution, post-dose, time 2.5 hr, read-out: Fosmetpantotenate Dialysate Concentration): 7.12 nM
- concentration at 1 h ([1]; cynomolgus monkey, in vivo, 300 mg/kg, individual Cyno, Fosmetpantotentate 300 mg/kg PO, post-dose, time 1 hr, read-out: Fosmetpantotenate Blood Concentration): 7390 nM
- concentration at 3 h ([1]; cynomolgus monkey, in vivo, 300 mg/kg, individual Cyno, Fosmetpantotentate 300 mg/kg PO, post-dose, time 3 hr, read-out: Fosmetpantotenate Blood Concentration): 227 nM
- Cmax ([1]; cynomolgus monkey, in vivo, 100 mg/kg, blood, fosmetpantotenate 100 mg/kg PO, analyte = label): 1650 ± 1930 nM
- Cmax ([1]; cynomolgus monkey, in vivo, 100 mg/kg, dialysate, fosmetpantotenate 100 mg/kg PO): 221 ± 253 nM
- Cmax ([1]; cynomolgus monkey, in vivo, 300 mg/kg, dialysate, fosmetpantotenate 300 mg/kg PO, mean (individual values)): 1560 nM
- AUC ([1]; cynomolgus monkey, in vivo, dialysate, fosmetpantotenate 100 mg/kg PO): 0.209 ± 0.234 µM·h
- AUC ([1]; cynomolgus monkey, in vivo, dialysate, fosmetpantotenate 300 mg/kg PO, mean (individual values)): 1.03 µM·h
- concentration at 3 h ([1]; cynomolgus monkey, in vivo, individual Cyno, Fosmetpantotentate 300 mg/kg PO, corrected for dilution, post-dose, time 3 hr, LLOQ D1=0.2 nM, D2=0.3 nM, read-out: Fosmetpantotenate Dialysate Concentration): 23.7 nM
- Cmax ([1]; cynomolgus, cynomolgus monkey, in vivo, 300 mg/kg, blood, fosmetpantotenate 300 mg/kg PO, mean (individual values), analyte = label): 6040 nM
- AUC ([1]; cynomolgus, cynomolgus monkey, in vivo, blood, fosmetpantotenate 100 mg/kg PO, analyte = label): 1.87 ± 1.96 µM·h
- AUC ([1]; cynomolgus, cynomolgus monkey, in vivo, blood, fosmetpantotenate 300 mg/kg PO, mean (individual values), analyte = label): 6.81 µM·h
- concentration at 3 h ([1]; individual Cyno, Fosmetpantotentate 300 mg/kg PO, corrected for dilution, post-dose, time 0.5 hr, read-out: Fosmetpantotenate Dialysate Concentration): 1059.88 nM
- concentration at 3 h ([1]; individual Cyno, Fosmetpantotentate 300 mg/kg PO, corrected for dilution, post-dose, time 1 hr, read-out: Fosmetpantotenate Dialysate Concentration): 429.27 nM
- concentration at 3 h ([1]; individual Cyno, Fosmetpantotentate 300 mg/kg PO, corrected for dilution, post-dose, time 1.5 hr, read-out: Fosmetpantotenate Dialysate Concentration): 72.40 nM
- concentration at 3 h ([1]; individual Cyno, Fosmetpantotentate 300 mg/kg PO, corrected for dilution, post-dose, time 2 hr, read-out: Fosmetpantotenate Dialysate Concentration): 19.06 nM
- concentration at 3 h ([1]; individual Cyno, Fosmetpantotentate 300 mg/kg PO, corrected for dilution, post-dose, time 2.5 hr, read-out: Fosmetpantotenate Dialysate Concentration): 4.54 nM
- Fosmetpantotenate Dialysate Concentration ([1]; individual Cyno, Fosmetpantotentate 300 mg/kg PO, corrected for dilution, post-dose, time 3 hr, LLOQ D1=0.2 nM, D2=0.3 nM): BLQ
- Fosmetpantotenate Dialysate Concentration ([1]; individual Cyno, Fosmetpantotentate 300 mg/kg PO, corrected for dilution, pre-dose, time 0 hr, LLOQ D1=0.2 nM, D2=0.3 nM): <LLOQ
- Fosmetpantotenate Dialysate Concentration ([1]; individual Cyno, Fosmetpantotentate 300 mg/kg PO, corrected for dilution, pre-dose, time -0.5 hr, LLOQ D1=0.2 nM, D2=0.3 nM): <LLOQ
- Fosmetpantotenate Dialysate Concentration ([1]; individual Cyno, Fosmetpantotentate 300 mg/kg PO, corrected for dilution, pre-dose, time -1 hr, LLOQ D1=0.2 nM, D2=0.3 nM): <LLOQ
- concentration at 1 h ([1]; individual Cyno, Fosmetpantotentate 300 mg/kg PO, post-dose, time 1 hr, read-out: Fosmetpantotenate Blood Concentration): 4687.62 nM
- concentration at 1 h ([1]; individual Cyno, Fosmetpantotentate 300 mg/kg PO, post-dose, time 2 hr, read-out: Fosmetpantotenate Blood Concentration): 1026.66 nM and 312.23 nM
- concentration at 1 h ([1]; individual Cyno, Fosmetpantotentate 300 mg/kg PO, post-dose, time 3 hr, read-out: Fosmetpantotenate Blood Concentration): 183.68 nM
- Fosmetpantotenate Blood Concentration ([1]; individual Cyno, Fosmetpantotentate 300 mg/kg PO, pre-dose, time 0 hr relative to dose): <LLOQ
- Fosmetpantotenate Blood Concentration ([1]; individual Cyno, Fosmetpantotentate 300 mg/kg PO, pre-dose, time -1 hr relative to dose): <LLOQ
- half-life at 10 μM [2]: > 10 h
